Results from publication PMC7277387, “Tailoring Uptake Efficacy of HSV-1 gD Tailoring Uptake Efficacy of Hsv-1 GD Derived Carrier Peptides” (Biomolecules, 2020).

Tests used:
[1] = format: physicochemical; conditions: 1 mg/mL in serum-free DMEM, 37 °C, samples at 0, 3, 6 and 24 h, RP-HPLC C18, A220
Procedure: Before the cellular uptake studies the stability of the Cf-labelled synthetic peptides was determined. Peptides were dissolved at 1 mg/mL concentration in serum-free DMEM medium (Lonza, Basel, Switzerland), and incubated at 37 °C for 24 h. Samples for RP-HPLC (Knauer, Berlin, Germany) were taken at 0, 3, 6 and 24 h. Phenomenex Luna C18 column (5 μm, 300 Å, 4.6 mm × 250 mm) (Gen-Lab Ltd., Budapest, Hungary) was applied with a gradient of 0–5 min 5% B eluent elevated to 55% B during 25 min, where eluent A: 0.1% TFA/water, eluent B: 0.1% TFA/acetonitrile–water 80:20 (v/v).
Figure S12. Stability study of (a) Cf-(236-255) and (b) Cf-(228-247), dissolved in DMEM serum free medium and incubated at 37 °C, followed by RP-HPLC. Samples for RP-HPLC (Knauer, Berlin, Germany) were taken at 0, 3, 6 and 24 hrs. Phenomenex Luna C18 column (5 μm, 300 Å, 4.6 mm × 250 mm) was applied with a gradient of 0-5 min 5% eluent B elevated to 55% B during 25 min, where eluent A: 0.1% TFA / water, eluent B: 0.1% TFA / acetonitrile –water 80:20 (v/v). Control: DMEM serum free medium. In case of Cf-(236-255) evaporation during the incubation caused increasing peptide peaks. Both peptides contain oxidation sensitive Trp residue. Cf -(236-255) was stable even after 24 h, the rising intensity of the peak representing the peptide is due to evap oration during the […]
to be stable during this interval. […]

[2] = system: SH-SY5Y neuroblastoma cells; assay: Cellular uptake of Cf-labelled peptides by flow cytometry; conditions: for cellular uptake (in words): Figure S19
[3] = Secondary structure of acetylated peptides by far-UV ECD spectroscopy; format: physicochemical; conditions: acetylated peptide; for α-helix fraction (PEPFIT): far-UV ECD, PEPFIT fit
Procedure: ECD spectra of acetylated HSV peptides were recorded using a Jasco J-810 and Jasco J-715 spectropolarimeter (Jasco Corporation, Tokyo, Japan) in the λ = 180–270 nm wavelength range using a 0.02 or a 0.1 cm path length quartz cell at room temperature, under constant nitrogen flush with continuous scanning mode. All spectra reported here were obtained as an average of three or five individual scans and corrected with the solvent ECD spectra. The J-810 equipment was calibrated with ammonium α-10-camphor-sulfonate. The samples were dissolved in trifluoroethanol (TFE) (Sigma), distilled water and a 1:1 (v/v) mixture of TFE:water. The solution concentration was in the range of 0.5–0.7 mg/mL (J-810) or ~0.14 mg/mL (J-715) for peptide amides. ECD band intensities are expressed in mean residual molar ellipticity unit. The percentage of the different conformational elements contributing to the ECD spectra was calculated by the MS Excel version of the PEPFIT program developed originally by Reed and Reed. The algorithm estimates the percentage of secondary contents by fitting experimental ECD data to the combination of reference spectra. The best fit is defined by the R^2 value, where an R^2 = 1 corresponds to a perfect match.
The helical content of the peptides in different solvents was also estimated employing the simple equation formulated by Chen and Yang: fH = -([Θ]222 + 2340)/30,300 where fH the fraction of helix and [Θ]222 is the measured mean residual ellipticity at 222 nm. It seems that the helical fractions obtained correlate favourably with the results of the curve fitting procedure (Table 2). […]

CC[C@H](C)[C@H](NC(=O)[C@H](CCCCN)NC(=O)[C@H](CC(C)C)NC(=O)[C@H](CO)NC(=O)[C@H](Cc1ccc(O)cc1)NC(=O)[C@@H](NC(=O)[C@H](C)NC(=O)[C@@H](NC(=O)[C@@H](NC(=O)[C@H](CCCNC(=N)N)NC(=O)[C@H](CCC(N)=O)NC(=O)c1ccc2c(c1)C(=O)OC21c2ccc(O)cc2Oc2cc(O)ccc21)[C@@H](C)O)C(C)C)C(C)C)C(=O)N[C@@H](C)C(=O)NCC(=O)N[C@@H](Cc1c[nH]c2ccccc12)C(=O)N[C@@H](Cc1c[nH]cn1)C(=O)NCC(=O)N1CCC[C@H]1C(=O)N[C@@H](CCCCN)C(=O)N[C@@H](C)C(=O)N1CCC[C@H]1C(N)=O [Cf-(228–247)]
stability of the intact peptide [1]: decreased intensity of the intact peptide

CC[C@H](C)[C@H](NC(=O)[C@H](CCCCN)NC(=O)[C@H](CC(C)C)NC(=O)c1ccc2c(c1)C(=O)OC21c2ccc(O)cc2Oc2cc(O)ccc21)C(=O)N[C@@H](C)C(=O)NCC(=O)N[C@@H](Cc1c[nH]c2ccccc12)C(=O)N[C@@H](Cc1c[nH]cn1)C(=O)NCC(=O)N1CCC[C@H]1C(=O)N[C@@H](CCCCN)C(=O)N[C@@H](C)C(=O)N1CCC[C@H]1C(=O)N[C@@H](Cc1ccc(O)cc1)C(=O)N[C@H](C(=O)N[C@@H](CO)C(=O)N[C@H](C(=O)N[C@@H](CC(C)C)C(=O)N[C@@H](CC(C)C)C(=O)N1CCC[C@H]1C(=O)N1CCC[C@H]1C(N)=O)[C@@H](C)O)[C@@H](C)O [Cf-(236–255)]
stability of the intact peptide [1]: stable even

Cf-TKPKGTKPKG [OT10]
cellular uptake (in words) ([2]; c = 10 µM, compared with Cf-HSV peptides): did not reach the level of internalisation of HSV peptides even with moderate uptake level
cellular uptake (in words) ([2]; c = 50 µM): effective cellular uptake, though not reaching 100%

Cf-^219M*LPRFIPENQRTVAVYSLKI^238 [Cf-(219–238)]
percentage of Cf-positive live cells ([2]; c = 2 μM, 3 h): 15–20%

^-1 GKYALADASLKMADPNRF^19 [acetylated HSV-1 gD -1–19 peptide amide for ECD]
disordered fraction (PEPFIT) ([3]; H2O): 64%
turn fraction (PEPFIT) ([3]; H2O): 24%
β-sheet fraction (PEPFIT) ([3]; H2O): 4%
α-helix fraction (PEPFIT) ([3]; H2O, room temperature): 8%
disordered fraction (PEPFIT) ([3]; H2O:TFE 1:1 (v/v)): 10%
turn fraction (PEPFIT) ([3]; H2O:TFE 1:1 (v/v)): 40%
β-sheet fraction (PEPFIT) ([3]; H2O:TFE 1:1 (v/v)): 0%
α-helix fraction (PEPFIT) ([3]; H2O:TFE 1:1 (v/v)): 50%
disordered fraction (PEPFIT) ([3]; TFE): 0%
turn fraction (PEPFIT) ([3]; TFE): 30%
β-sheet fraction (PEPFIT) ([3]; TFE): 0%
α-helix fraction (PEPFIT) ([3]; TFE): 70%
